According to the NIST ThermoML archive (doi:10.1016/j.fluid.2017.01.019):

Assay: xn = mol fraction of the nth substance listed
Settings: 100 kPa, Liquid; for viscosity: Falling or rolling sphere viscometry; for speed of sound: Frequency=3 MHz, Sing-around technique in a fixed-path interferometer; for mass density: Vibrating tube method

CCCCO [butan-1-ol] + CO
Settings | mass density [kg/m3] | speed of sound [m/s] | viscosity [mPa·s]
293.15 K, x1 = 0.0997 | – | – | 0.7
293.15 K, x1 = 0.1994 | – | – | 0.83
293.15 K, x1 = 0.3068 | – | – | 0.99
293.15 K, x1 = 0.3991 | – | – | 1.15
293.15 K, x1 = 0.5082 | – | – | 1.36
293.15 K, x1 = 0.604 | – | – | 1.57
293.15 K, x1 = 0.6992 | – | – | 1.77
293.15 K, x1 = 0.7994 | – | – | 2.05
293.15 K, x1 = 0.9038 | – | – | 2.34
293.15 K, x1 = 1 | – | – | 2.61
298.15 K, x1 = 0.0997 | 791.339 | 1130.6 | –
298.15 K, x1 = 0.1994 | 794.665 | 1150 | –
298.15 K, x1 = 0.3068 | 797.503 | 1169.2 | –
298.15 K, x1 = 0.3991 | 799.477 | 1183.5 | –
298.15 K, x1 = 0.5082 | 801.494 | 1197 | –
298.15 K, x1 = 0.604 | 802.958 | 1210.3 | –
298.15 K, x1 = 0.6992 | 804.13 | 1218 | –
298.15 K, x1 = 0.7994 | 805.057 | 1228.8 | –
298.15 K, x1 = 0.9038 | 805.689 | 1235.8 | –
298.15 K, x1 = 1 | 806.27 | 1241.1 | –
303.15 K, x1 = 0.0997 | 786.81 | 1114.2 | 0.65
303.15 K, x1 = 0.1994 | 790.266 | 1133.6 | 0.76
303.15 K, x1 = 0.3068 | 793.243 | 1152.4 | 0.91
303.15 K, x1 = 0.3991 | 795.305 | 1166.7 | 1.05
303.15 K, x1 = 0.5082 | 797.42 | 1180.4 | 1.23
303.15 K, x1 = 0.604 | 798.956 | 1193.7 | 1.41
303.15 K, x1 = 0.6992 | 800.184 | 1201.4 | 1.59
303.15 K, x1 = 0.7994 | 801.155 | 1212.1 | 1.83
303.15 K, x1 = 0.9038 | 801.817 | 1219.1 | 2.08
303.15 K, x1 = 1 | 802.42 | 1224.3 | 2.31
308.15 K, x1 = 0.0997 | 782.263 | 1097.9 | 0.6
308.15 K, x1 = 0.1994 | 785.837 | 1117.3 | 0.71
308.15 K, x1 = 0.3068 | 788.95 | 1136.4 | 0.84
308.15 K, x1 = 0.3991 | 791.101 | 1150.6 | 0.96
308.15 K, x1 = 0.5082 | 793.315 | 1163.9 | 1.12
308.15 K, x1 = 0.604 | 794.922 | 1177.2 | 1.28
308.15 K, x1 = 0.6992 | 796.169 | 1184.8 | 1.43
308.15 K, x1 = 0.7994 | 797.222 | 1195.5 | 1.64
308.15 K, x1 = 0.9038 | 797.914 | 1202.4 | 1.86
308.15 K, x1 = 1 | 798.536 | 1207.5 | 2.07
313.15 K, x1 = 0.0997 | 777.683 | 1081.8 | 0.56
313.15 K, x1 = 0.1994 | 781.397 | 1101 | 0.66
313.15 K, x1 = 0.3068 | 784.606 | 1119.8 | 0.77
313.15 K, x1 = 0.3991 | 786.863 | 1134.2 | 0.88
313.15 K, x1 = 0.5082 | 789.167 | 1147.5 | 1.02
313.15 K, x1 = 0.604 | 790.889 | 1160.7 | 1.18
313.15 K, x1 = 0.6992 | 792.224 | 1168.3 | 1.29
313.15 K, x1 = 0.7994 | 793.273 | 1178.9 | 1.47
313.15 K, x1 = 0.9038 | 793.979 | 1185.7 | 1.66
313.15 K, x1 = 1 | 794.617 | 1190.9 | 1.85
318.15 K, x1 = 0.0997 | 773.076 | 1065.7 | 0.53
318.15 K, x1 = 0.1994 | 776.932 | 1084.9 | 0.61
318.15 K, x1 = 0.3068 | 780.263 | 1103.6 | 0.71
318.15 K, x1 = 0.3991 | 782.592 | 1118 | 0.81
318.15 K, x1 = 0.5082 | 784.996 | 1131.2 | 0.93
318.15 K, x1 = 0.604 | 786.847 | 1144.4 | 1.05
318.15 K, x1 = 0.6992 | 788.248 | 1151.8 | 1.17
318.15 K, x1 = 0.7994 | 789.325 | 1162.4 | 1.33
318.15 K, x1 = 0.9038 | 789.993 | 1169.2 | 1.49
318.15 K, x1 = 1 | 790.655 | 1174.2 | 1.66
323.15 K, x1 = 0.0997 | 768.447 | 1049.7 | 0.51
323.15 K, x1 = 0.1994 | 772.448 | 1068.9 | 0.58
323.15 K, x1 = 0.3068 | 775.921 | 1087.5 | 0.66
323.15 K, x1 = 0.3991 | 778.306 | 1101.8 | 0.75
323.15 K, x1 = 0.5082 | 780.936 | 1115 | 0.86
323.15 K, x1 = 0.604 | 782.762 | 1128 | 0.96
323.15 K, x1 = 0.6992 | 784.201 | 1135.4 | 1.06
323.15 K, x1 = 0.7994 | 785.373 | 1145.9 | 1.2
323.15 K, x1 = 0.9038 | 785.98 | 1152.6 | 1.35
323.15 K, x1 = 1 | 786.645 | 1157.6 | 1.5
